# From PubChem BioAssay AID2060620 (Molecular Pharmacology Branch, DTP, NCI, 2025)
# Several values for one entry are separate records, joined by “and”; a condition that tells them apart may be missing. Equal entries are not always repeated.
# Test system: 328373-195-R-J1-PDC complex spheroids, viability % test/control
# Test: Anticancer human tumor 328373-195-R-J1-PDC patient-derived head and neck squamous carcinoma cell line growth inhibition [CLK]
# Conditions: for viability, T/C: stronger effect = lower value
# Method in brief: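 Patient-derived tumor cells grown as complex spheroids with HUVEC endothelial cells and mesenchymal stem cells, treated with drug combinations. Concentrations descend in half-log steps from near clinical Cmax, or from 10 microM if Cmax unknown.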
# [1] = curve of first compound, second compound 0.0316 µM
# [2] = curve of first compound, second compound 0.1 µM
# [3] = curve of first compound, second compound 0.316 µM
# [4] = curve of first compound, second compound 1 µM
# [5] = curve of first compound, second compound 3.16 µM
# [6] = curve of first compound, second compound 10 µM
# 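Note: spheroids exposed to the agents for 7 days.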
smiles,measurement,setting,value
CCCS(=O)(=O)Nc1ccc(F)c(C(=O)c2c[nH]c3ncc(-c4ccc(Cl)cc4)cc23)c1F + CNC(=O)c1ccc(Nc2nc(OC3CCCC3)c3c(-c4ccc5nc(C)oc5c4)c[nH]c3n2)c(OC)c1,IC50,[1],> 10000 nM
same,IC50,[2],< 31.6 nM
same,IC50,[3],< 31.6 nM
same,IC50,[4],< 31.6 nM
same,IC50,[5],< 31.6 nM
same,IC50,[6],< 31.6 nM
same,"viability, T/C","second compound 0.0316 µM, first compound 0.0316 µM",61.7%
same,"viability, T/C","second compound 0.0316 µM, first compound 0.1 µM",59.5%
same,"viability, T/C","second compound 0.0316 µM, first compound 0.316 µM",62.4%
same,"viability, T/C","second compound 0.0316 µM, first compound 1 µM",66.1%
same,"viability, T/C","second compound 0.0316 µM, first compound 3.16 µM",56.8%
same,"viability, T/C","second compound 0.0316 µM, first compound 10 µM",43.3%
same,"viability, T/C","second compound 0.1 µM, first compound 0.0316 µM",11.7%
same,"viability, T/C","second compound 0.1 µM, first compound 0.1 µM",10.9%
same,"viability, T/C","second compound 0.1 µM, first compound 0.316 µM",12%
same,"viability, T/C","second compound 0.1 µM, first compound 1 µM",15.7%
same,"viability, T/C","second compound 0.1 µM, first compound 3.16 µM",13.9%
same,"viability, T/C","second compound 0.1 µM, first compound 10 µM",15.6%
same,"viability, T/C","second compound 0.316 µM, first compound 0.0316 µM",10.2%
same,"viability, T/C","second compound 0.316 µM, first compound 0.1 µM",11.3%
same,"viability, T/C","second compound 0.316 µM, first compound 0.316 µM",11%
same,"viability, T/C","second compound 0.316 µM, first compound 1 µM",12.2%
same,"viability, T/C","second compound 0.316 µM, first compound 3.16 µM",10.6%
same,"viability, T/C","second compound 0.316 µM, first compound 10 µM",13.5%
same,"viability, T/C","second compound 1 µM, first compound 0.0316 µM",10.9%
same,"viability, T/C","second compound 1 µM, first compound 0.1 µM",10.5%
same,"viability, T/C","second compound 1 µM, first compound 0.316 µM",11.3%
same,"viability, T/C","second compound 1 µM, first compound 1 µM",10.7%
same,"viability, T/C","second compound 1 µM, first compound 3.16 µM",11.1%
same,"viability, T/C","second compound 1 µM, first compound 10 µM",15.2%
same,"viability, T/C","second compound 3.16 µM, first compound 0.0316 µM",10.8%
same,"viability, T/C","second compound 3.16 µM, first compound 0.1 µM",11.3%
same,"viability, T/C","second compound 3.16 µM, first compound 0.316 µM",10.3%
same,"viability, T/C","second compound 3.16 µM, first compound 1 µM",11.4%
same,"viability, T/C","second compound 3.16 µM, first compound 3.16 µM",12.7%
same,"viability, T/C","second compound 3.16 µM, first compound 10 µM",15.8%
same,"viability, T/C","second compound 10 µM, first compound 0.0316 µM",13.8%
same,"viability, T/C","second compound 10 µM, first compound 0.1 µM",11.1%
same,"viability, T/C","second compound 10 µM, first compound 0.316 µM",11.2%
same,"viability, T/C","second compound 10 µM, first compound 1 µM",14.1%
same,"viability, T/C","second compound 10 µM, first compound 3.16 µM",16.6%
same,"viability, T/C","second compound 10 µM, first compound 10 µM",16.4%
Nc1ccccc1NC(=O)c1ccc(CNC(=O)OCc2cccnc2)cc1,"viability, T/C",compound 0.0316 µM,87.1% and 84.6%
same,"viability, T/C",compound 0.1 µM,71.8% and 68.4%
same,"viability, T/C",compound 0.316 µM,54.6% and 49.4%
same,"viability, T/C",compound 1 µM,38.6% and 28.9%
same,"viability, T/C",compound 3.16 µM,31.2% and 21.1%
same,"viability, T/C",compound 10 µM,7.32% and 4.87%
same,IC50,curve of compound,515 nM and 299 nM
COc1cccc2c1C(=O)c1c(O)c3c(c(O)c1C2=O)CC(O)(C(=O)CO)CC3OC1CC(N)C(O)C(C)O1 (stereo not drawn),"viability, T/C",compound 0.0316 µM,14.6% and 11.2%
same,"viability, T/C",compound 0.1 µM,11.1% and 6.08%
same,"viability, T/C",compound 0.316 µM,1.12% and 2.35%
same,"viability, T/C",compound 1 µM,0.18% and 1.14%
same,"viability, T/C",compound 3.16 µM,2.47% and 0.1%
same,"viability, T/C",compound 10 µM,1.82% and 1.43%
same,IC50,curve of compound,< 31.6 nM
C=CC(=O)Nc1cc(Nc2nccc(-c3cn(C)c4ccccc34)n2)c(OC)cc1N(C)CCN(C)C + CN1CCN(c2cc(C(=O)Nc3cc4cc(-c5cnn(C)c5)ccc4cn3)ccn2)CC1,IC50,[1],> 300 nM
same,IC50,[2],> 300 nM
same,IC50,[3],< 0.949 nM
same,IC50,[4],< 0.949 nM
same,IC50,[5],< 0.949 nM
same,IC50,[6],< 0.949 nM
same,"viability, T/C","second compound 0.0316 µM, first compound 0.000949 µM",100%
same,"viability, T/C","second compound 0.0316 µM, first compound 0.003 µM",112%
same,"viability, T/C","second compound 0.0316 µM, first compound 0.00949 µM",99.2%
same,"viability, T/C","second compound 0.0316 µM, first compound 0.03 µM",96.9%
same,"viability, T/C","second compound 0.0316 µM, first compound 0.0949 µM",98.7%
same,"viability, T/C","second compound 0.0316 µM, first compound 0.3 µM",93.6%
same,"viability, T/C","second compound 0.1 µM, first compound 0.000949 µM",83.8%
same,"viability, T/C","second compound 0.1 µM, first compound 0.003 µM",88.1%
same,"viability, T/C","second compound 0.1 µM, first compound 0.00949 µM",87.4%
same,"viability, T/C","second compound 0.1 µM, first compound 0.03 µM",90.7%
same,"viability, T/C","second compound 0.1 µM, first compound 0.0949 µM",96%
same,"viability, T/C","second compound 0.1 µM, first compound 0.3 µM",69%
same,"viability, T/C","second compound 0.316 µM, first compound 0.000949 µM",30.1%
same,"viability, T/C","second compound 0.316 µM, first compound 0.003 µM",35%
same,"viability, T/C","second compound 0.316 µM, first compound 0.00949 µM",30.1%
same,"viability, T/C","second compound 0.316 µM, first compound 0.03 µM",26.3%
same,"viability, T/C","second compound 0.316 µM, first compound 0.0949 µM",26.6%
same,"viability, T/C","second compound 0.316 µM, first compound 0.3 µM",18.1%
same,"viability, T/C","second compound 1 µM, first compound 0.000949 µM",0.15%
same,"viability, T/C","second compound 1 µM, first compound 0.003 µM",0.25%
same,"viability, T/C","second compound 1 µM, first compound 0.00949 µM",0.9%
same,"viability, T/C","second compound 1 µM, first compound 0.03 µM",0.25%
same,"viability, T/C","second compound 1 µM, first compound 0.0949 µM",1.86%
same,"viability, T/C","second compound 1 µM, first compound 0.3 µM",1.95%
same,"viability, T/C","second compound 3.16 µM, first compound 0.000949 µM",1.21%
same,"viability, T/C","second compound 3.16 µM, first compound 0.003 µM",0.16%
same,"viability, T/C","second compound 3.16 µM, first compound 0.00949 µM",0.17%
same,"viability, T/C","second compound 3.16 µM, first compound 0.03 µM",0.15%
same,"viability, T/C","second compound 3.16 µM, first compound 0.0949 µM",4.52%
same,"viability, T/C","second compound 3.16 µM, first compound 0.3 µM",2.34%
same,"viability, T/C","second compound 10 µM, first compound 0.000949 µM",0.17%
same,"viability, T/C","second compound 10 µM, first compound 0.003 µM",0.21%
same,"viability, T/C","second compound 10 µM, first compound 0.00949 µM",1.31%
same,"viability, T/C","second compound 10 µM, first compound 0.03 µM",2.14%
same,"viability, T/C","second compound 10 µM, first compound 0.0949 µM",3.21%
same,"viability, T/C","second compound 10 µM, first compound 0.3 µM",0.21%
